Test system: Plasmodium falciparum Dd2 asexual blood stage parasites
Assay: microbe, parasite or virus in culture
Design: species or system Plasmodium falciparum Dd2 in human erythrocytes; single determination (one 11-point concentration-response curve)
Conditions: Plasmodium falciparum, DD2, Erythrocyte, 72 h

`O=C(c1cccs1)c1cn(CCOc2ccc(Cl)cc2)c2ccccc12` [NCGC00101601-01] and `O=C(c1ccco1)c1cn(CCOc2ccc(F)cc2)c2ccccc12` [NCGC00101884-01] are within 1.5-fold of each other in AC50: 5.96 µM for the first, 6.68 µM for the second.

`Cc1ccc(C)c(OCCn2cc(C(=O)c3ccco3)c3ccccc32)c1` [NCGC00101856-01] showed an AC50 of 5.31 µM.

Same assay, conditions: Plasmodium falciparum, DD2, Erythrocyte, 72 h; read-out: AC50

Compared with `CC1CCCN(Cc2c(O)ccc3c(=O)c(Oc4ccccc4Cl)c(C(F)(F)F)oc23)C1` (stereo not shown) [NCGC00101512-01], `CCc1ccc(Oc2c(C(F)(F)F)oc3c(CN4CCCC(C)C4)c(O)ccc3c2=O)cc1` (stereo not shown) [NCGC00101514-01] is 1.6-fold lower in AC50: 2.11 µM for the first, 1.33 µM for the second.

Going from `CCOc1ccc(CN(CCc2ccc3c(c2)OCO3)Cc2cc(OC)ccc2O)cc1` [NCGC00101752-01] to `COc1ccc(OCCn2cc(C(=O)c3ccco3)c3ccccc32)cc1` [NCGC00101886-01], the AC50 rises from 0.668 µM to 2.11 µM (3.2-fold).

First: Cc1ccccc1OCCn1cc(C(=O)c2ccco2)c2ccccc21 [NCGC00101854-01]
Second: CCOc1ccccc1C(=O)N1CC(=O)Nc2ccc(Cl)cc2C1c1ccccc1 (stereo not shown) [NCGC00103922-01]
The AC50 of the first is 1.8-fold lower: 5.31 µM for the first, 9.44 µM for the second.

`CCCOc1cccc(C2c3c(oc4cc(C)c(C)cc4c3=O)C(=O)N2CCCN2CCOCC2)c1` (stereo not shown) [NCGC00101917-01] and `COc1cc2c(cc1OC)C(COc1ccc3c(C)cc(=O)oc3c1)N(C(=O)c1ccccc1C)CC2` (stereo not shown) [NCGC00104945-01] are within 1.5-fold of each other in AC50: 13.3 µM for the first, 15 µM for the second.

Compared with `O=C(Nc1ccccc1)c1cc2c(-c3ccccc3)nn(-c3ccccc3)c2s1` [NCGC00102084-01], `Cc1ccccc1NC(=O)c1cc2c(-c3ccccc3)nn(-c3ccccc3)c2s1` [NCGC00102094-01] is 3.6-fold higher in AC50: 3.35 µM for the first, 11.9 µM for the second.

First: O=C(Nc1ccc(Cl)cc1)c1cc2c(-c3ccccc3)nn(-c3ccccc3)c2s1 [NCGC00102088-01]
Second: Cc1nnc2c(N3CCN(c4ccccc4)CC3)nc3ccc(C(=O)c4ccccc4)cc3n12 [NCGC00107547-01]
The AC50 of the first is 2.8-fold higher: 2.37 µM for the first, 0.841 µM for the second.

Going from `Cn1c2ccc(F)cc2c2nnc(SCCN3CCCCC3)nc21` [NCGC00102309-01] to `CCn1c(=O)c(=O)n(CC)c2cc(N3CCCCC3)c(NC(=O)c3ccc(Cl)cc3)cc21` [NCGC00107440-01], the AC50 falls from 15 µM to 7.5 µM (2-fold).

Going from `CCOC(=O)c1ccc(NC2=CC(c3ccc(F)cc3)N(c3ccc(C(=O)OCC)cc3)C2=O)cc1` (stereo not shown) [NCGC00102598-01] to `Cc1ccc(NC(=O)Cn2c(=O)n(-c3ccc(C)cc3)c(=O)c3ccc(C(=O)NCc4ccccc4Cl)cc32)cc1` [NCGC00108700-01], the AC50 falls from 8.41 µM to 5.31 µM (1.6-fold).

First: COc1cc(/C=C(\C#N)c2nc3ccccc3[nH]2)cc(Cl)c1OCc1ccccc1Cl [NCGC00102602-01]
Second: OC1=C2C(=Nc3ccccc3SC2c2c(F)cccc2Cl)c2ccccc21 (stereo not shown) [NCGC00108823-01]
The AC50 of the first is 1.8-fold lower: 5.31 µM for the first, 9.44 µM for the second.

`COc1cccc(CNCCSc2nnnn2C)c1OCc1ccc(Cl)cc1` [NCGC00103033-01] and `COc1cc2nc(SCc3ccc(F)cc3)n3nc(CCn4c(C)nc5ccccc54)nc3c2cc1OC` [NCGC00108638-01] are within 1.5-fold of each other in AC50: 2.66 µM for the first, 2.99 µM for the second.

Going from `COc1cc2c(C(=O)N3CCN(c4cc(Cl)ccc4C)CC3)cn(CC(C)C)c(=O)c2cc1OC` [NCGC00103751-01] to `Cc1ccc(Cl)cc1N1CCN(C(=O)c2cn(CC(C)C)c(=O)c3c2c2ccccc2n3C)CC1` [NCGC00106023-01], the AC50 falls from 15 µM to 3.35 µM (4.5-fold).

Going from `CCN1CCN(c2cc(C)c3cc(NC(=O)c4cc(OC)cc(OC)c4)ccc3n2)CC1` [NCGC00103842-01] to `CCN1CCN(c2cc(C)c3cc(NC(=O)/C=C/c4cccc(OC)c4OC)ccc3n2)CC1` [NCGC00103854-01], the AC50 rises from 3.35 µM to 5.96 µM (1.8-fold).

`CCOC(=O)c1cc2c(=O)n3ccccc3nc2n(CC(C)C)/c1=N\C(=O)COc1ccc(Cl)cc1` [NCGC00104075-01] and `CCOC(=O)c1ccccc1NC(=O)c1cn(CC(C)C)c(=O)c2cc(OC)c(OC)cc12` [NCGC00104537-01] are within 1.5-fold of each other in AC50: 10.6 µM for the first, 8.41 µM for the second.

Going from `CCN(c1ccccc1)[S+](=O)([O-])c1cc(Br)cc2c1N(C(=O)C1CC1)CC2` [NCGC00104258-01] to `O=C(C1CC1)N1CCc2cc(Br)cc([S+](=O)([O-])N3CCN(c4cccc(C(F)(F)F)c4)CC3)c21` [NCGC00104294-01], the AC50 rises from 2.99 µM to 4.73 µM (1.6-fold).

Going from `CCN(CC)c1cc(C)c2cc(NC(=O)/C=C/c3cc(OC)c(OC)c(OC)c3)ccc2n1` [NCGC00104274-01] to `CCOc1ccc(/C=C/C(=O)Nc2ccc3nc(N(CC)CC)cc(C)c3c2)cc1OC` [NCGC00104284-01], the AC50 falls from 4.73 µM to 1.88 µM (2.5-fold).

`CC(=O)N1c2c(cc(Br)cc2[S+](=O)([O-])N2CCN(c3cc(C)ccc3C)CC2)CC1C` (stereo not shown) [NCGC00104358-01] and `O=C(CC[S+](=O)([O-])c1cc(Br)cc2c1N(C(=O)C1CC1)CC2)N1CCN(c2cccc(Cl)c2)CC1` [NCGC00107190-01] are within 1.5-fold of each other in AC50: 11.9 µM for the first, 13.3 µM for the second.

First: COc1cccc(/C=C/C(=O)Nc2ccc3nc(N4CCN(C)CC4)cc(C)c3c2)c1OC [NCGC00104449-01]
Second: CCOC(=O)c1ccc(Nc2nc(N)c3cc(OC)c(OC)cc3n2)cc1 [NCGC00107259-01]
The AC50 of the first is 3.2-fold higher: 5.96 µM for the first, 1.88 µM for the second.

`CC(C)CN(CCNC(=O)c1cc(-c2ccc(Cl)s2)nc2ccccc12)CC(C)C` [NCGC00104475-01] and `CCN(CC)CCCNC(=O)c1nn(-c2ccc(OC)c(Cl)c2)c(=O)c2c1c1ccccc1n2C` [NCGC00108872-01] are within 1.5-fold of each other in AC50: 7.5 µM for the first, 10.6 µM for the second.

Going from `CC(=O)c1sc2c(c1C)c(=O)n(-c1ccc(Cl)cc1)c(=O)n2Cc1cc(=O)n2cc(Cl)ccc2n1` [NCGC00104860-01] to `Cc1sc2c(c1C)c(=O)n(-c1cccc(C(F)(F)F)c1)c(=O)n2Cc1ccc(F)cc1` [NCGC00106130-01], the AC50 falls from 7.5 µM to 2.11 µM (3.6-fold).

Going from `COc1cc2c(cc1OC)C(COc1ccc3c(C)cc(=O)oc3c1)N(C(=O)Cc1ccc(F)cc1)CC2` (stereo not shown) [NCGC00104919-01] to `COc1ccc(-n2nc(C(=O)NCCc3ccc(OC)c(OC)c3)c3c4ccccc4n(C)c3c2=O)cc1Cl` [NCGC00108876-01], the AC50 falls from 5.96 µM to 2.99 µM (2-fold).

First: COc1cccc(NC(=O)c2sc3nc(C)c(C(=O)Nc4ccc(C)cc4C)c(-c4ccccc4Cl)c3c2N)c1 [NCGC00104946-01]
Second: COc1cccc(NC(=O)c2sc3nc(C)c(C(=O)Nc4ccc(C)cc4C)c(-c4cccs4)c3c2N)c1 [NCGC00107008-01]
The AC50 of the first is 2.2-fold lower: 2.66 µM for the first, 5.96 µM for the second.

Going from `Cc1nc2sc(C(=O)Nc3ccc(F)cc3)c(N)c2c(-c2ccc(Br)cc2)c1C(=O)Nc1ccc(Cl)cc1` [NCGC00105115-01] to `Cc1ccc(C2=CC(c3ccc(Cl)cc3)n3nc(-c4ccc(C)cc4)nc3N2)cc1` (stereo not shown) [NCGC00105128-01], the AC50 falls from 8.41 µM to 1.68 µM (5-fold).

`Cc1ccc(-c2nc3n(n2)C(c2ccccc2Cl)C=C(c2ccc(Cl)cc2)N3)cc1` (stereo not shown) [NCGC00105122-01] and `Cc1ccc(C)c(CN2C(=O)c3ccccc3[S+](=O)([O-])c3ccc(C(=O)NCCc4ccc(Cl)cc4)cc32)c1` [NCGC00109793-01] are within 1.5-fold of each other in AC50: 9.44 µM for the first, 7.5 µM for the second.

`O=C(Cn1c(=O)n(Cc2ccc(C(=O)NCc3ccc4c(c3)OCO4)cc2)c(=O)c2ccccc21)Nc1cccc(Cl)c1` [NCGC00106483-01] and `CCN(C(=O)Cn1c(=O)n(Cc2ccc3c(c2)OCO3)c(=O)c2ccc(C(=O)NC3CCCCC3)cc21)c1cccc(C)c1` [NCGC00108796-01] are within 1.5-fold of each other in AC50: 5.96 µM for the first, 6.68 µM for the second.

Compared with `COc1cc(NC(=O)Cn2c(=O)n(CC3CCC(C(=O)NCCc4ccccc4)CC3)c(=O)c3ccccc32)cc(OC)c1` (stereo not shown) [NCGC00106543-01], `CCOC(=O)N1CCC(NC(=O)c2ccc3c(c2)N(Cc2ccccc2)C(=O)c2ccccc2[S+]3[O-])CC1` (stereo not shown) [NCGC00109348-01] is 2.2-fold higher in AC50: 5.96 µM for the first, 13.3 µM for the second.

First: Cc1ccc2nc(-c3ccccc3O)c(Nc3ccccc3C)n2c1 [NCGC00106804-01]
Second: COc1ccc(Nc2c(-c3cc(Br)ccc3O)nc3ncccn23)cc1OC [NCGC00107676-01]
The AC50 of the first is 2-fold lower: 2.37 µM for the first, 4.73 µM for the second.

First: COc1cc(C2CC(=O)Nc3cc4c(cc32)OCCO4)cc(Br)c1OC (stereo not shown) [NCGC00107055-01]
Second: COc1cc(Br)c(C2CC(=O)Nc3cc4c(cc32)OCCO4)cc1OC (stereo not shown) [NCGC00107079-01]
The AC50 of the first is 2.2-fold higher: 5.31 µM for the first, 2.37 µM for the second.

Going from `COCCNC(=O)CSc1nc(-c2cc(OC)c(OC)c(OC)c2)[nH]c1-c1ccc(Cl)cc1` [NCGC00107926-01] to `COc1cc(NC(=O)Cn2ncc3c(=O)oc4ccccc4c32)cc(OC)c1OC` [NCGC00108571-01], the AC50 falls from 8.41 µM to 2.66 µM (3.2-fold).

Going from `CN(C)CCNC(=O)c1ccc2c(c1)N(Cc1c(F)cccc1Cl)C(=O)c1ccccc1S2` [NCGC00108148-01] to `O=C(NCc1ccco1)c1ccc2c(c1)N(Cc1c(F)cccc1Cl)C(=O)c1ccccc1S2` [NCGC00108150-01], the AC50 rises from 2.11 µM to 13.3 µM (6.3-fold).

First: CN1CCN(C(=O)c2ccc3c(c2)N(Cc2c(F)cccc2Cl)C(=O)c2ccccc2S3)CC1 [NCGC00108178-01]
Second: CCN1CCN(C(=O)c2ccc3c(c2)N(Cc2c(F)cccc2Cl)C(=O)c2ccccc2S3)CC1 [NCGC00108184-01]
The AC50 of the first is 7.1-fold higher: 0.0596 µM for the first, 0.00842 µM for the second.

Going from `CCOc1ccc(CN2C(=O)c3ccccc3Sc3ccc(C(=O)N4CCN(C)CC4)cc32)cc1` [NCGC00108216-01] to `CCOc1ccc(CN2C(=O)c3ccccc3Sc3ccc(C(=O)N4CCC5(CC4)OCCO5)cc32)cc1` [NCGC00108218-01], the AC50 rises from 0.299 µM to 4.22 µM (14-fold).

`CCN(CCCNC(=O)c1nn(-c2ccc(OC)c(Cl)c2)c(=O)c2c1c1ccccc1n2C)c1cccc(C)c1` [NCGC00108898-01] and `CCOc1ccc(CCNC(=O)c2ccc3c(c2)N(Cc2ccccc2F)C(=O)c2ccccc2[S+]3[O-])cc1OCC` (stereo not shown) [NCGC00109590-01] are within 1.5-fold of each other in AC50: 15 µM for the first, 10.6 µM for the second.

First: CCn1cc(C(=O)NCCCN2CCCC(C)C2)c(=O)c2cc([S+](=O)([O-])N(C)C3CCCCC3)ccc21 (stereo not shown) [NCGC00109162-01]
Second: CCOc1ccccc1NC(=O)C1CCN([S+](=O)([O-])c2c(C)noc2/C=C/c2ccco2)CC1 [NCGC00109315-01]
The AC50 of the first is 1.8-fold lower: 8.41 µM for the first, 15 µM for the second.

Going from `COc1ccc(/C=C\c2onc(C)c2[S+](=O)([O-])N2CCC(C(=O)Nc3ccc(C)cc3C)CC2)cc1` [NCGC00109197-01] to `COc1ccccc1N1CCN(C(=O)c2ccc3c(c2)N(Cc2cc(C)ccc2C)C(=O)c2ccccc2[S+]3(=O)[O-])CC1` [NCGC00109735-01], the AC50 rises from 0.841 µM to 9.44 µM (11-fold).

`Cc1ccc(Cl)cc1N1CCN(C(=O)c2ccc3c(c2)N(Cc2ccccc2F)C(=O)c2ccccc2[S+]3(=O)[O-])CC1` [NCGC00109582-01] and `CCOC(=O)C1CCCN(C(=O)c2ccc3c(c2)N(Cc2ccccc2)C(=O)c2ccccc2[S+]3(=O)[O-])C1` (stereo not shown) [NCGC00109839-01] are within 1.5-fold of each other in AC50: 5.31 µM for the first, 6.68 µM for the second.
